Data taken from paper PMC5428521, “Identification of a Novel, Small Molecule Partial Agonist for the Cyclic AMP Sensor, EPAC1” (Scientific Reports, 2017).
Like-named read-outs stand apart in the source and are kept apart here.

What was measured:
Type in all cases: binding
EPAC2-CNB = target: T1, EPAC2-CNB (Mus musculus, UniProt Q9EQZ6); test: Ligand observed NMR (1D and waterLOGSY) with EPAC2-CNB; conditions: compound 50 µM, protein 2.5 µM
T1 construct: EPAC2-CNB (amino acids 304–453 of EPAC2); made in house; host or cells: BL-21 Escherichia coli (pGEX-6P-1)
T1 sequence (Q9EQZ6 304-453 isoform Q9EQZ6-3): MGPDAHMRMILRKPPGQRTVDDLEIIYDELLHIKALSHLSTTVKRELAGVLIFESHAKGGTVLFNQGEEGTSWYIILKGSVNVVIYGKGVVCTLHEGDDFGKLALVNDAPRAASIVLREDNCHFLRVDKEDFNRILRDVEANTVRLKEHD
Source text: (§1) Given that I942 seems to exert selective agonist properties against EPAC1, but not EPAC2, we next sought to validate whether our isolated ligands can interact with EPAC1 and EPAC2. Ligand observed nuclear magnetic resonance (NMR) is a valuable tool for the identification and validation of small molecule ligands. We therefore used one dimensional proton (1D) and water-ligand observed by gradient spectroscopy (waterLOGSY) NMR to confirm the ability of I942 and I178 to bind to the purified CNBs of EPAC1 and EPAC2, in comparison with the commercially available EPAC1 antagonist, ESI-09[32]. In order to assess ligand/CNB interaction, 1D and waterLOGSY experiments were performed on each compound (50 µM) in the presence or absence of 2.5 µM EPAC-CNB. In the absence of protein, each test compound produced a well-resolved 1D spectrum and a region of each spectrum was chosen to display distinctive spectral peaks originating from the ligand (Fig. 6). In the absence of protein, the corresponding waterLOGSY peaks were small, or absent, due to the negligible signal produced by saturation transfer from water to the freely tumbling small molecule. […] In waterLOGSY spectra, protein-mediated saturation transfer can only occur if the protein-ligand complex has a substantial lifetime. […]
(§2) (A) One dimensional proton (1D) and waterLOGSY (WL) spectra were performed on samples containing hit compound I942 (50 µM) in the absence and presence of EPAC1-CNB, EPAC2-CNB or GST alone, as indicated (2.5 µM). […] Interaction between compound and protein was assessed through comparison of the compound alone and protein-compound sample spectra. […]
(§3) All NMR spectra were recorded on a Bruker AVANCE IIIHD 600 spectrometer equipped with a TCI cryoprobe at 285 K. Test compounds were prepared in deuterated DMSO and diluted to given experimental concentrations in NMR buffer (20 mM Na2PO4, pH 7.0, 50 mM NaCl, 0.1% (w/v) NaN3, 5% (v/v) D2O) with a final DMSO concentration below 0.1%. […] One dimensional proton (1D) and waterLOGSY spectra were recorded for all compounds tested, using pulse sequences as previously described. […]

EPAC1-CNB [1] = target: T2, EPAC1-CNB (Homo sapiens, UniProt O95398); test: 8-NBD-cAMP competition assay with EPAC1-CNB; conditions: for IC50: 7-point dose response, 75 µM top concentration, 0.75% DMSO
T2 construct: EPAC1-CNB (amino acids 169–318 of EPAC1); made in house; host or cells: BL-21 Escherichia coli (pGEX-6P-1)
T2 sequence (O95398 169-318 isoform O95398-3): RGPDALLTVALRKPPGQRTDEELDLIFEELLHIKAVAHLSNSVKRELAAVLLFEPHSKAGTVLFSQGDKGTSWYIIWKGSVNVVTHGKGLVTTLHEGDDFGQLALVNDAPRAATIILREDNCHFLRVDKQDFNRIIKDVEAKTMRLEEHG
Protocol: Optimisation of assay conditions was performed in 96 well black assay plates (Greiner). Comparison of reference molecules, dose response curves and pilot screen were done in black, low volume 384 assay plates (Greiner). Liquids were dispensed using a Biomek Fx laboratory automation workstation with a 96-multichannel pipetting head (Beckman Coulter) for optimisation, whereas the Echo® Liquid Handler (Labcyte) and Wellmate automated dispenser (Thermo Matrix) were employed for pilot screens (see library screening).
This was done using the optimised assay conditions developed during the study. Library compounds were transferred from pre-prepared, 1000x stock Echo® 384 LDV source plates (Labcyte) into black, low volume 384 assay plates (Greiner) at 25 nl volumes, using an Echo® Liquid Handler (Labcyte), maintaining 0.1–1% DMSO throughout. EPAC1-CNB (0.8 µM) was immediately added using a Wellmate automated dispenser (Thermo Matrix). Plates were centrifuged at 800 rpm, 10 s, and then incubated for 30 minutes, RT, to promote compound-protein complex formation. […] The assay was incubated at room temperature and the fluorescence intensity at 480/535 nm (ex/em) was measured after 4–15 hours using the Envision plate reader.

GST = GST (Schistosoma japonicum, UniProt P08515); test: Ligand observed NMR (1D and waterLOGSY) with GST alone; conditions: compound 50 µM, GST 2.5 µM
Chain of GST (P08515 whole entry): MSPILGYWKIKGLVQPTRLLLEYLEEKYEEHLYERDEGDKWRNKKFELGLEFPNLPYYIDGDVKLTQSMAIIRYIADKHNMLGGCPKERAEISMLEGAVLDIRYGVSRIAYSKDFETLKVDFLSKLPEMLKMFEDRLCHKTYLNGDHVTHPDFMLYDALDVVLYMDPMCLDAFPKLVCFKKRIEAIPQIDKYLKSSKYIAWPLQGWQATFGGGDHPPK
Source text: as §1, §2, §3

EPAC1-CNB [2] = target: T2, EPAC1-CNB; test: Ligand observed NMR (1D and waterLOGSY) with EPAC1-CNB; conditions: compound 50 µM, protein 2.5 µM
Source text: as §1, §2, §3

| Compound | NMR interaction (EPAC2-CNB) | IC50 (EPAC1-CNB [1]; read-out: IC50, 8-NBD-cAMP binding assay) [µM] | NMR interaction with GST alone (GST) | NMR interaction (EPAC1-CNB [2]) | Kd (EPAC1-CNB [1]) [µM] | IC50 (EPAC1-CNB [1]; IC50, 8-NBD-cAMP binding assay) [µM] | affinity, fold lower than that of cAMP (EPAC1-CNB [1]; competition assay, isolated CNB domain) |
| --- | --- | --- | --- | --- | --- | --- | --- |
| O=C(COc1ccc2ccccc2c1)NS(=O)(=O)c1ccccc1 [I178, N-(benzenesulfonyl)-2-(naphthalen-2-yloxy)acetamide] | Weak, specific interaction | ~40 | No peak broadening | Strong, Specific Interaction |  |  |  |
| Cc1ccc(S(=O)(=O)NC(=O)COc2ccc3ccccc3c2)c(C)c1 [I942, N-(2,4-dimethylbenzenesulfonyl)-2-(naphthalen-2-yloxy)acetamide] | Strong, Specific Interaction |  | No peak broadening | Strong, Specific Interaction | ~40 | ~35 | about 10 fold |
